In PMC2247270, “Inhibition of vincristine binding to plasma membrane vesicles from daunorubicin-resistant Ehrlich ascites cells by multidrug resistance modulators” (British Journal of Cancer, 1989):
pIC50: −log10 of the molar value.

Target: T1, P-glycoprotein
T1 construct: plasma membrane vesicles from EHR2/DNR+ Ehrlich ascites tumour cells
Assay: inhibition of 3H-vincristine binding to plasma membrane vesicles, rapid filtration
Type: biochemical

pIC50: 4.63
SMILES: CN1CCN(CCCN2c3ccccc3Sc3ccc(C(F)(F)F)cc32)CC1 [TFP, trifluoperazine]
